Experimental findings from the supplement of paper PMC11061612 are described below.

SMILES strings stand for the structures.

Assay in all cases: combination Emax (second highest fraction inhibited in the dose matrix, 72 h); higher = more inhibition; extreme values may be limits of the assay
Assay [1] has as its system KYM-1 (Rhabdomyosarcoma). The gist of the method: (§1)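 After 24 hours at 37°C and 5% CO2 in 1536-well plates, cells in DMEM/F12 or RPMI plus 10% FBS received two-drug dose matrices for 72 hours. Viability came from CellTiter-Glo 2.0 luminescence and was scaled as inhibition, anchored at 0 by vehicle wells and at 1 by blank wells. Combination Emax is taken as the second-highest inhibition in the matrix, and Bliss excess as the observed combination effect less EA + EB − EA·EB, with EA and EB the single-agent effects.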

Assay [2] concerns SK-MM-2 (Plasma Cell Myeloma). The gist of the method:
as §1

Assay [3] relates to RMG-I (Ovarian Carcinoma). The gist of the method: as §1
In assay [4] the test system is NCI-H810 (Non-Small Cell Lung Carcinoma). Put shortly:
as §1

The test system of assay [5] is OV-90 (Ovarian Carcinoma). Put shortly:
as §1

The subject of assay [6] is JHH-1 (Hepatocellular Carcinoma). The gist of the method: as §1
Assay [7] deals with HSC-3 (Oral Cavity Carcinoma). Put shortly:
as §1

Assay [8] has as its system RT4 (Bladder Carcinoma). The gist of the method: as §1
Assay [9] deals with HuO-3N1 (Osteosarcoma). Put shortly:
as §1

In assay [10] the test system is LAMA-84 (Chronic Myelogenous Leukemia). The gist of the method: as §1
The test system of assay [11] is SJRH30 (Rhabdomyosarcoma). The gist of the method: as §1
Assay [12] relates to AN3-CA (Endometrial Carcinoma). Put shortly: as §1
Assay [13] has as its system KYSE-70 (Esophageal Squamous Cell Carcinoma). The gist of the method: as §1
For assay [14], the system named is PC-14 (Lung Adenocarcinoma). Put shortly: as §1
In assay [15] the test system is NCI-H196 (Small Cell Lung Carcinoma). The gist of the method: as §1
In assay [16] the test system is CML-T1 (Chronic Myelogenous Leukemia). The gist of the method:
as §1

For assay [17], the system named is ES-2 (Ovarian Carcinoma). Put shortly:
as §1

Assay [18] deals with Becker (Low Grade Glioma). The gist of the method: as §1
Assay [19] relates to Calu-6 (Non-Small Cell Lung Carcinoma). The gist of the method: as §1
Assay [20] concerns NCI-H1155 (Non-Small Cell Lung Carcinoma). The gist of the method: as §1

As to `Cn1cnc2c(F)c(Nc3ccc(Br)cc3Cl)c(C(=O)NOCCO)cc21` [Selumetinib] + C[C@@H]1COCCN1C2=NC(=NC(=C2)C3(CC3)[S@](=N)(=O)C)C4=C5C=CNC5=NC=C4 [AZD6738] (first compound max 10 µM, 7x7, partner max 10 µM), the “combination Emax” value is 0.899 in assay [1]; 0.23 in assay [2]; 0.354 in [3]; 0.414 in assay [4]; 0.688 in [5]; 0.436 in [6]. The “combination Emax” value in assay [7] came out at 0.545; in assay [8], 0.549; in assay [9] it was 0.22; in [10], 0.992; in [11], 0.821; in assay [12], 0.464. For the same compound, the “combination Emax” value in [13] was 0.243; in assay [14], 0.829; in assay [15] it was 0.227; in assay [16], 0.977; in assay [17], 0.714; in assay [18], 0.427. The “combination Emax” value came out at 0.817 in assay [19] and 0.758 in assay [20].

In the case of `CC(=O)Nc1cccc(-n2c(=O)n(C3CC3)c(=O)c3c(Nc4ccc(I)cc4F)n(C)c(=O)c(C)c32)c1` [Trametinib] + Cc1nc(-c2cn3c(n2)-c2ccc(-c4cnn(C(C)(C)C(N)=O)c4)cc2OCC3)n(C(C)C)n1 [Taselisib] (first compound max 1 µM, 7x7, partner max 10 µM), the “combination Emax” value was found to be 0.4 in assay [1]; 0.43 in assay [2]; 0.485 in assay [3]; 0.121 in assay [4]; 0.834 in assay [5]; 1 in assay [6]. Moreover, the “combination Emax” value in assay [7] turned out to be 0.986; in assay [8], 0.734; in [9], 0.461; in assay [10], 1; in assay [11], 0.947; in [12] it was 0.997. Also, the “combination Emax” value in [13] was determined as 0.804; in [14] it was 1; in assay [15] it was 0.376; in assay [16], 0.465; in [17] it was 0.725; in [18], 0.678. Further, the “combination Emax” value in [19] was determined as 0.987; in [20], 0.348.

As for `CC1(C)CCC(CN2CCN(c3ccc(C(=O)NS(=O)(=O)c4ccc(NCC5CCOCC5)c([N+](=O)[O-])c4)c(Oc4cnc5[nH]ccc5c4)c3)CC2)=C(c2ccc(Cl)cc2)C1` [Venetoclax] + C1CN(CCC1(C(=O)N[C@@H](CCO)C2=CC=C(C=C2)Cl)N)C3=NC=NC4=C3C=CN4 [Capivasertib] (first compound max 1 µM, 7x7, partner max 3 µM), the “combination Emax” value in assay [1] came out at 0.0721; in assay [2] it was 1; in [3] it was 0.242; in [4], 0.113; in assay [5], 0.366; in assay [6], 0.115. For the same compound, the “combination Emax” value in assay [7] stood at 0.391; in [8] it was 0.0704; in assay [9], 0.242; in [10] it was 0.371; in [11], 0.387; in [12], 0.653. Also, the “combination Emax” value stood at 0.234 in assay [13]; 0.328 in assay [14]; 0.198 in assay [15]; 0.935 in assay [16]; 0.14 in assay [17]; 0.359 in assay [18]. Further, the entries for the “combination Emax” value in [19] and in assay [20] were 0.111 and 0.289, respectively.

Consider `CC1(C)CCC(CN2CCN(c3ccc(C(=O)NS(=O)(=O)c4ccc(NCC5CCOCC5)c([N+](=O)[O-])c4)c(Oc4cnc5[nH]ccc5c4)c3)CC2)=C(c2ccc(Cl)cc2)C1` [Venetoclax] + C=CCn1c(=O)c2cnc(Nc3ccc(N4CCN(C)CC4)cc3)nc2n1-c1cccc(C(C)(C)O)n1 [AZD1775] (first compound max 1 µM, partner max 1 µM), for which the “combination Emax” value in assay [1] was found to be 0.314; in [2], 1; in assay [3], 0.57; in [4], 0.781; in [5] it was 0.512; in [6], 0.578. Moreover, the “combination Emax” value amounted to 0.492 in assay [7]; 0.372 in assay [8]; 0.386 in [9]; 0.964 in assay [10]; 0.9 in [11]; 0.446 in assay [12]. Besides, the “combination Emax” value in assay [13] stood at 0.604; in [14], 0.93; in assay [15] it was 0.574; in assay [16], 1; in assay [17], 0.644; in assay [18], 0.76. Also, the “combination Emax” value is 0.787 in assay [19] and 0.223 in assay [20].

With `CC1(C)CCC(CN2CCN(c3ccc(C(=O)NS(=O)(=O)c4ccc(NCC5CCOCC5)c([N+](=O)[O-])c4)c(Oc4cnc5[nH]ccc5c4)c3)CC2)=C(c2ccc(Cl)cc2)C1` [Venetoclax] + CCN(CCO)CCCOc1ccc2c(Nc3cc(CC(=O)Nc4cccc(F)c4)[nH]n3)ncnc2c1 [AZD2811] (first compound max 1 µM, 7x7, partner max 1 µM), the “combination Emax” value in [1] is 0.162; in assay [2] it was 1; in assay [3] it was 0.302; in assay [4] it was 0.492; in assay [5] it was 0.285; in assay [6], 0.268. The “combination Emax” value in [7] came to 0.436; in assay [8], 0.702; in [9], 0.256; in [10] it was 0.594; in [11] it was 0.287; in [12], 0.399. The “combination Emax” value in assay [13] was 0.224; in assay [14], 0.312; in [15], 0.126; in assay [16], 0.991; in assay [17] it was 0.233; in assay [18] it was 0.221. Besides, the “combination Emax” value in [19] turned out to be 0.346; in [20], 0.887.

`CC1(C)CCC(CN2CCN(c3ccc(C(=O)NS(=O)(=O)c4ccc(NCC5CCOCC5)c([N+](=O)[O-])c4)c(Oc4cnc5[nH]ccc5c4)c3)CC2)=C(c2ccc(Cl)cc2)C1` [Venetoclax] + CN(C)CCCOc1ccc(-c2ccc3ncc4c(c3c2)n(C2CCOCC2)c(=O)n4C)cn1 [AZD0156] (first compound max 1 µM, 7x7, partner max 1 µM): the “combination Emax” value in assay [1] was found to be 0.158; in [2], 1; in assay [3], 0.348; in [4] it was 0.121; in assay [5], 0.3; in [6] it was 0.214. The “combination Emax” value came out at 0.233 in assay [7]; 0.189 in assay [8]; 0.262 in [9]; 0.339 in assay [10]; 0.177 in assay [11]; 0.227 in assay [12]. The “combination Emax” value in [13] was found to be 0.104; in assay [14], 0.259; in assay [15] it was 0.113; in assay [16] it was 0.947; in assay [17] it was 0.22; in [18], 0.434. The “combination Emax” value in [19] is 0.199; in [20] it was 0.145.
